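Compound exposure: 48 hours, 5 concentrations, 96-well plates. At the GI50, growth is halved.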 The source made the active and inactive calls. Rule as the data show it: active = GI50 up to about 1.1 µM and inactive = higher.
Tests used:
Test in all cases: NCI-60 cell line screen, 48 h
[1] = system: SNB-19
[2] = system: BT-549
[3] = system: NCI-H23
[4] = system: PC-3
[5] = system: LOX IMVI
[6] = system: NCI-H522
[7] = system: SK-MEL-28
[8] = system: SK-OV-3
[9] = system: HCT-116
[10] = system: T47D
[11] = system: SK-MEL-5
[12] = system: OVCAR-5
[13] = system: DU-145
[14] = system: EKVX
[15] = system: 786-0
[16] = system: SF-268
[17] = system: M14
[18] = system: HOP-92
[19] = system: NCI/ADR-RES
[20] = system: CCRF-CEM

Row | SMILES | GI50 [1] | GI50 [2] | GI50 [3] | GI50 [4] | GI50 [5] | GI50 [6] | GI50 [7] | GI50 [8] | GI50 [9] | GI50 [10] | GI50 [11] | GI50 [12] | GI50 [13] | GI50 [14] | GI50 [15] | GI50 [16] | GI50 [17] | GI50 [18] | GI50 [19] | GI50 [20]
1 | Cc1ccc(C)c(C(=N)c2ccccc2Cc2ccccc2)c1 | 42.6 µM (inactive) | 32.7 µM (inactive) | 26.9 µM (inactive) | 26.7 µM (inactive) | 17.3 µM (inactive) | 13.2 µM (inactive) | 26.4 µM (inactive) | 26.8 µM (inactive) | 12.6 µM (inactive) | 21 µM (inactive) | 15.5 µM (inactive) | 25.9 µM (inactive) | 22.9 µM (inactive) | 19 µM (inactive) | 17 µM (inactive) | 18.6 µM (inactive) | 24.2 µM (inactive) | 17 µM (inactive) | 25.4 µM (inactive) | 
2 | OC1CCCC1C(O)(C(F)(F)F)C(F)(F)F (stereo not drawn) | > 100 µM (inactive) |  | > 100 µM (inactive) | > 100 µM (inactive) | > 100 µM (inactive) | > 100 µM (inactive) | > 100 µM (inactive) | > 100 µM (inactive) | > 100 µM (inactive) | > 100 µM (inactive) | > 100 µM (inactive) | > 100 µM (inactive) | > 100 µM (inactive) | > 100 µM (inactive) | > 100 µM (inactive) | > 100 µM (inactive) | > 100 µM (inactive) | > 100 µM (inactive) | > 100 µM (inactive) | > 100 µM (inactive)
3 | Cc1cc(-c2ccc(C(=O)O)[nH]2)on1 | 61.4 µM (inactive) | > 100 µM (inactive) | 69 µM (inactive) | 68.5 µM (inactive) |  | 29 µM (inactive) | > 100 µM (inactive) | 32.6 µM (inactive) | 29.2 µM (inactive) |  | 16.1 µM (inactive) | 74.1 µM (inactive) | 62.4 µM (inactive) | 42.1 µM (inactive) | 51.4 µM (inactive) | > 100 µM (inactive) | 52 µM (inactive) | 66.7 µM (inactive) | 24.9 µM (inactive) | 
4 | C=CCNc1ccc(C)cc1 | > 100 µM (inactive) |  | > 100 µM (inactive) | > 100 µM (inactive) | > 100 µM (inactive) | > 100 µM (inactive) | > 100 µM (inactive) |  | > 100 µM (inactive) | > 100 µM (inactive) | > 100 µM (inactive) |  | > 100 µM (inactive) |  |  | > 100 µM (inactive) | > 100 µM (inactive) | > 100 µM (inactive) | > 100 µM (inactive) | > 100 µM (inactive)
5 | CO/C1=C\C(C)=C\C(C)C(O)C(C)C/C(C)=C/C=C/C(OC)C(C(C)C(O)C(C)C2(O)CC(O)C(C)C(C(C)C)O2)OC1=O (stereo not drawn) | 10.9 µM (inactive) |  | 0.00267 µM (active) | 0.00252 µM (active) | 1e-05 µM (active) | 0.00112 µM (active) | 0.0661 µM (active) | 0.684 µM (active) | 0.000382 µM (active) | 0.00297 µM (active) | 0.000396 µM (active) | 0.000491 µM (active) | 0.000873 µM (active) | 0.0566 µM (active) | 0.00331 µM (active) | 0.00519 µM (active) | 0.000369 µM (active) | 0.00041 µM (active) |  | 0.00119 µM (active)
6 | COc1ccc(C2=NNC(c3cc4cc(Br)ccc4nc3Cl)C2)cc1 (stereo not drawn) |  | 14.5 µM (inactive) | 15.4 µM (inactive) | 11.9 µM (inactive) |  |  | 15.5 µM (inactive) |  | 10.5 µM (inactive) | 0.0887 µM (active) |  | > 25 µM (inactive) | 11.7 µM (inactive) | 19.4 µM (inactive) | 15.9 µM (inactive) |  | 11.5 µM (inactive) | > 25 µM (inactive) |  | 0.13 µM (active)
7 | CC(=O)CCC[C@H](C)[C@@H](O)[C@@H]1O[C@H]([C@@]2(C)CCC(=O)O2)C[C@H]1C(=O)O | > 100 µM (inactive) | 35.6 µM (inactive) | > 100 µM (inactive) | > 100 µM (inactive) | > 100 µM (inactive) | > 100 µM (inactive) | > 100 µM (inactive) | > 100 µM (inactive) | > 100 µM (inactive) | > 100 µM (inactive) | > 100 µM (inactive) | > 100 µM (inactive) | > 100 µM (inactive) | > 100 µM (inactive) | > 100 µM (inactive) | > 100 µM (inactive) |  |  | > 100 µM (inactive) | > 100 µM (inactive)
8 | OCCCCCNc1c2ccccc2nc2ccccc12 | 3.03 µM (inactive) | 6.17 µM (inactive) | 2.02 µM (inactive) | 1.98 µM (inactive) | 1.89 µM (inactive) | 2.04 µM (inactive) | 3.85 µM (inactive) | 3.05 µM (inactive) | 1.45 µM (inactive) | 2.82 µM (inactive) | 1.71 µM (inactive) | 2.51 µM (inactive) | 3.02 µM (inactive) | 3.4 µM (inactive) | 2.34 µM (inactive) | 2.75 µM (inactive) | 2.74 µM (inactive) |  | 7.46 µM (inactive) | 2.5 µM (inactive)

— ChEMBL document CHEMBL1201862, “PubChem BioAssay data set” (2004)
